Measured values from patent publication US5041567A, “Antibacterial monic acid derivatives” (Beecham Group plc, priority 1982, dated 1991).
≈ marks a conversion by molar mass, not a printed value. Where two headings read alike, the source gives them in different places.

Experiments:
[1] = test system: Staph. aureus B4 (pen. resistant); experiment: MIC against veterinary bacteria in vitro; settings: Staphylococcus aureus, 18 h
Experimental: (§1) The activity of the compounds of the Examples against various veterinarily important bacteria, was assayed in vitro using two-fold serial dilutions in Diagnostic Sensitivity Test Agar inoculated with 10^4 organisms.

S. typhimurium S18 = experiment: MIC against veterinary bacteria in vitro; settings: Salmonella enterica, TYPHIMURIUM, 18 h
Experimental: as §1

M. suipneumoniae JF 435 = experiment: MIC against mycoplasma in vitro; type: cell-based; settings: Mesomycoplasma hyopneumoniae, JF435, 144 h
Bord. bronchiseptica B08 = experiment: MIC against veterinary bacteria in vitro; settings: Bordetella bronchiseptica, B08, 18 h
Experimental: as §1

Staph. aureus Oxford = experiment: MIC against human bacteria in vitro; type: cell-based; settings: Staphylococcus aureus; Staph. aureus Oxford; 5% chocolated horse blood agar, 18 hours; read-out: MIC
K. aerogenes A = experiment: MIC against human bacteria in vitro; type: cell-based; settings: Klebsiella aerogenes; K. aerogenes A; 5% chocolated horse blood agar, 18 hours; read-out: MIC
P. mirabilis 889 = experiment: MIC against human bacteria in vitro; type: cell-based; settings: Proteus mirabilis; P. mirabilis 889; 5% chocolated horse blood agar, 18 hours; read-out: MIC
[2] = test system: M. suipneumoniae NCTC 10110; experiment: MIC against mycoplasma in vitro; type: cell-based; settings: Mesomycoplasma hyopneumoniae, NCTC10110, 144 h
M. suipneumoniae HK(2) = experiment: MIC against mycoplasma in vitro; type: cell-based; settings: Mesomycoplasma hyopneumoniae, 144 h
Strep. faecalis I = experiment: MIC against human bacteria in vitro; type: cell-based; settings: Enterococcus faecalis; Strep. faecalis I; 5% chocolated horse blood agar, 18 hours; read-out: MIC
Bacillus subtilis 6633 = experiment: MIC against human bacteria in vitro; type: cell-based; settings: Bacillus subtilis 6633; 5% chocolated horse blood agar, 18 hours; read-out: MIC
Sarcina lutea 8340 = experiment: MIC against human bacteria in vitro; type: cell-based; settings: Micrococcus luteus; Sarcina lutea 8340; 5% chocolated horse blood agar, 18 hours; read-out: MIC
Strep. uberis SPU1 = experiment: MIC against veterinary bacteria in vitro; settings: Streptococcus uberis, SPU1, 18 h
Experimental: as §1

M. hyorhinis ATCC 23234 = experiment: MIC against mycoplasma in vitro; type: cell-based; settings: Mesomycoplasma hyorhinis, ATCC23234, 144 h
Past. multocida PA2 = experiment: MIC against veterinary bacteria in vitro; settings: Pasteurella multocida, PA2, 18 h
Experimental: as §1

E. coli E1 = experiment: MIC against veterinary bacteria in vitro; settings: Escherichia coli, E1, 18 h
Experimental: as §1

[3] = test system: Pasteurella multocida 1633; experiment: MIC against human bacteria in vitro; type: cell-based; settings: Pasteurella multocida 1633; 5% chocolated horse blood agar, 18 hours; read-out: MIC
Strep. spp. 64/848-C = experiment: MIC against human bacteria in vitro; type: cell-based; settings: Strep. spp. 64/848-C; 5% chocolated horse blood agar, 18 hours; read-out: MIC
M. pneumoniae ATCC 15492 = experiment: MIC against mycoplasma in vitro; type: cell-based; settings: Mycoplasmoides pneumoniae, ATCC15492, 144 h
[4] = test system: Strep. suis (group D) SPS11; experiment: MIC against veterinary bacteria in vitro; settings: Streptococcus suis, 18 h
Experimental: as §1

M. dispar NCTC 10125 = experiment: MIC against mycoplasma in vitro; type: cell-based; settings: 144 h
[5] = test system: Staph. aureus 152 (pen. sens); experiment: MIC against veterinary bacteria in vitro; settings: Staphylococcus aureus, 18 h
Experimental: as §1

M. suipneumoniae TAM 6N = experiment: MIC against mycoplasma in vitro; type: cell-based; settings: Mesomycoplasma hyopneumoniae, TAM6N, 144 h
Staph. aureus Russell = experiment: MIC against human bacteria in vitro; type: cell-based; settings: Staphylococcus aureus; Staph. aureus Russell; 5% chocolated horse blood agar, 18 hours; read-out: MIC
[6] = test system: M. suipneumoniae J2206/183^b; experiment: MIC against mycoplasma in vitro; type: cell-based; settings: Mesomycoplasma hyopneumoniae, 144 h
[7] = test system: Strep. pyogenes R80/421-A; experiment: MIC against human bacteria in vitro; type: cell-based; settings: Streptococcus pyogenes; Strep. pyogenes R80/421-A; 5% chocolated horse blood agar, 18 hours; read-out: MIC
Staph. aureus W2827 = experiment: MIC against human bacteria in vitro; type: cell-based; settings: Staphylococcus aureus; Staph. aureus W2827; 5% chocolated horse blood agar, 18 hours; read-out: MIC
M. suipneumoniae MS 16 = experiment: MIC against mycoplasma in vitro; type: cell-based; settings: Mesomycoplasma hyopneumoniae, MS16, 144 h
M. hyorhinis ATCC 25021 = experiment: MIC against mycoplasma in vitro; type: cell-based; settings: Mesomycoplasma hyorhinis, ATCC25021, 144 h
M. suipneumoniae LABER = experiment: MIC against mycoplasma in vitro; type: cell-based; settings: Mesomycoplasma hyopneumoniae, 144 h
[8] = test system: M. suipneumoniae ATCC 25095; experiment: MIC against mycoplasma in vitro; type: cell-based; settings: Mesomycoplasma hyopneumoniae, ATCC25095, 144 h
[9] = test system: M. hyosynoviae ATCC 25591; experiment: MIC against mycoplasma in vitro; type: cell-based; settings: 144 h
E. coli ESS = experiment: MIC against human bacteria in vitro; type: cell-based; settings: Escherichia coli; E. coli ESS; 5% chocolated horse blood agar, 18 hours; read-out: MIC

SMILES	MIC [1]	MIC (S. typhimurium S18)	MIC (Bord. bronchiseptica B08)	MIC (Staph. aureus Oxford)	MIC (K. aerogenes A)	MIC (P. mirabilis 889)	MIC (Strep. faecalis I)	MIC (Bacillus subtilis 6633)	MIC (Sarcina lutea 8340)	MIC (Strep. uberis SPU1)	MIC (M. hyorhinis ATCC 23234)	MIC (Past. multocida PA2)	MIC (E. coli E1)	MIC [3]	MIC (Strep. spp. 64/848-C)	MIC [4]	MIC [5]	MIC (Staph. aureus Russell)	MIC [7]	MIC (Staph. aureus W2827)	also measured
C/C(=C\c1ncc(-c2ccc(C#N)cc2)o1)C[C@@H]1OC[C@H](C[C@@H]2O[C@H]2[C@@H](C)[C@H](C)O)[C@@H](O)[C@H]1O [Example 21, 5-p-Cyanophenyl-2-(1-normon-2-yl) oxazole A]	1.25 µg/mL (≈ 2.67 µM)	> 80 µg/mL	40 µg/mL (≈ 85.4 µM)	4 µg/mL (≈ 8.54 µM)	> 128 µg/mL	> 128 µg/mL	> 128 µg/mL	1 µg/mL (≈ 2.13 µM)	> 128 µg/mL	0.156 µg/mL (≈ 0.333 µM)	0.25 µg/mL (≈ 0.534 µM)	0.625 µg/mL (≈ 1.33 µM)	> 80 µg/mL	8 µg/mL (≈ 17.1 µM)	4 µg/mL (≈ 8.54 µM)	10 µg/mL (≈ 21.3 µM)	0.625 µg/mL (≈ 1.33 µM)	4 µg/mL (≈ 8.54 µM)	1 µg/mL (≈ 2.13 µM)	4 µg/mL (≈ 8.54 µM)	MIC (M. suipneumoniae JF 435; M. suipneumoniae JF 435, 6 days, 37° C., read-out: MIC): 0.5 µg/mL (≈ 1.07 µM); MIC ([2]; M. suipneumoniae NCTC 10110, 6 days, 37° C., read-out: MIC): 0.5 µg/mL (≈ 1.07 µM); MIC (M. suipneumoniae HK(2); M. suipneumoniae HK(2), 6 days, 37° C., read-out: MIC): 0.5 µg/mL (≈ 1.07 µM); MIC (M. pneumoniae ATCC 15492): 0.25 µg/mL (≈ 0.534 µM); MIC (M. dispar NCTC 10125): 0.1 µg/mL (≈ 0.213 µM); MIC (M. suipneumoniae TAM 6N; M. suipneumoniae TAM 6N, 6 days, 37° C., read-out: MIC): 0.5 µg/mL (≈ 1.07 µM); MIC ([6]; M. suipneumoniae J2206/183^b, 6 days, 37° C., read-out: MIC): 0.5 µg/mL (≈ 1.07 µM); MIC (M. suipneumoniae MS 16): 0.25 µg/mL (≈ 0.534 µM); MIC (M. hyorhinis ATCC 25021): 0.25 µg/mL (≈ 0.534 µM); MIC (M. suipneumoniae LABER): 0.25 µg/mL (≈ 0.534 µM); MIC [8]: 0.25 µg/mL (≈ 0.534 µM); MIC [9]: 0.1 µg/mL (≈ 0.213 µM); MIC (E. coli ESS): 4 µg/mL (≈ 8.54 µM)
CSc1cccc(-c2cnc(/C=C(\C)C[C@@H]3OC[C@H](C[C@@H]4O[C@H]4[C@@H](C)[C@H](C)O)[C@@H](O)[C@H]3O)o2)c1 [Example 22, 5-m-Methylthiophenyl-2-(1-normon-2-yl)oxazole A]	1.25 µg/mL (≈ 2.55 µM)	> 80 µg/mL	> 80 µg/mL	4 µg/mL (≈ 8.17 µM)	> 128 µg/mL	> 128 µg/mL	> 128 µg/mL	4 µg/mL (≈ 8.17 µM)	> 128 µg/mL	0.156 µg/mL (≈ 0.319 µM)	1 µg/mL (≈ 2.04 µM)	10 µg/mL (≈ 20.4 µM)	> 80 µg/mL	32 µg/mL (≈ 65.4 µM)	16 µg/mL (≈ 32.7 µM)	20 µg/mL (≈ 40.8 µM)	1.25 µg/mL (≈ 2.55 µM)	16 µg/mL (≈ 32.7 µM)	8 µg/mL (≈ 16.3 µM)	16 µg/mL (≈ 32.7 µM)	MIC (M. suipneumoniae JF 435): 1 µg/mL (≈ 2.04 µM); MIC [2]: 1 µg/mL (≈ 2.04 µM); MIC (M. suipneumoniae HK(2)): 1 µg/mL (≈ 2.04 µM); MIC (M. pneumoniae ATCC 15492; M. pneumoniae ATCC 15492, 6 days, 37° C., read-out: MIC): 5 µg/mL (≈ 10.2 µM); MIC (M. dispar NCTC 10125; M. dispar NCTC 10125, 6 days, 37° C., read-out: MIC): 0.5 µg/mL (≈ 1.02 µM); MIC (M. suipneumoniae TAM 6N): 1 µg/mL (≈ 2.04 µM); MIC [6]: 1 µg/mL (≈ 2.04 µM); MIC (M. suipneumoniae MS 16; M. suipneumoniae MS 16, 6 days, 37° C., read-out: MIC): 0.5 µg/mL (≈ 1.02 µM); MIC (M. hyorhinis ATCC 25021; M. hyorhinis ATCC 25021, 6 days, 37° C., read-out: MIC): 0.5 µg/mL (≈ 1.02 µM); MIC (M. suipneumoniae LABER; M. suipneumoniae LABER, 6 days, 37° C., read-out: MIC): 0.5 µg/mL (≈ 1.02 µM); MIC [8]: 1 µg/mL (≈ 2.04 µM); MIC [9]: 1 µg/mL (≈ 2.04 µM); MIC (E. coli ESS): 64 µg/mL (≈ 131 µM)
